Key:
[1] = Absorption spectra (maximum absorption wavelength); type: physicochemical
Protocol: All chemicals and solvents were purchased from commercial suppliers and used without further purification unless other-wise specified. ^1H NMR (500 MHz) and ^13C NMR ([…]) spectra were recorded in deuterated solvents on a Bruker ADVANCE 500 NMR Spectrometer. J values are expressed in Hz and quoted chemical shifts are in ppm downfield from tetramethylsilane (TMS) reference using the residual protonated solvents as an internal standard. The signals have been designated as follows: s (singlet), d (doublet), t (triplet), m (multiplets). All the ^13C NMR are proton decoupled. High resolution mass spectra (HRMS) were determined on Broker-micrOTOF-Q II Mass Spectrometer. Concentrations are given in μM. Absorption spectra were acquired using a Cary 5000 UV-Vis-NIR spectrophotometer in a 1 cm quartz cell.
The IR spectrums of the closed (Compound 3) and opened (XanthCR-880) forms of the dye are very distinct. The IR spectrums were obtained in dichloromethane (DCM) and dimethyl sulfoxide (DMSO) (FIG. 2). The maximum absorption wavelength (λabs) of the closed form (Compound 3) is 372 nm. However, when the dye was trapped in the opened form as the ethyl ester (XanthCR-880), the λabs shifted to 880 nm in DCM and 890 nm in DMSO, both of which are at the edge of the NIR I region and trail into the NIR II region.

[2] = Photobleaching under continuous irradiation; type: physicochemical; conditions: continuous irradiation at λPA for 60 min; 20 μM in CHCl3
Excerpt: Ideally PA contrast agents are photostable. When PA contrast agent are used in studies, they may be subjected to multiple imaging sessions, and as such are ideally resistant to photobleaching.

porcine liver esterase = experiment: Stability in the presence of esterase (absorbance); type: in vitro ADME; conditions: room temperature, 30 min
Protocol: (§1) FIGS. 3A-3B show absorption studies depicting the stability of XanthCR-880 (20 μM) to the treatment of glutathione (10 mM) (FIG. 3A) and esterase (5 units) (FIG. 3B).
(§2) The XanthCR-880 dye was evaluated for its compatibility as a PA contrast agent in chloroform (FIG. 3C) and PBS buffer and observed that the strongest intensity (XPA) was at 890 nm and 865 nm, respectively.

[3] = Photoacoustic spectrum (PA contrast agent compatibility); type: physicochemical
Protocol: Photoacoustic A imaging was performed on an iThera Medical MSOT inVision 128 tomographer.
as §2

[4] = Fluorescence (fluorescent quantum yield attempt); type: physicochemical; conditions: attempts to determine the fluorescent quantum yield
Excerpt: Fluorescence spectra were acquired using a custom-built setup with discrete excitation wavelengths ranging from 226 nm to 1059 nm with a temperature range from 4.2 K to 300 K using a liquid He bath cryostat. Alternatively, a Horiba QuantaMaster 8075-21 spectrofluorometer with xenon lamp excitation and liquid nitrogen cooled indium gallium arsenide solid state detector could be used. […] excitation was chosen to coincide with a Xe emission peak.

[5] = Stability of the dye against glutathione (change in absorption at 880 nm); type: in vitro ADME; conditions: 17 μM dye, 40% DMSO/60% PBS, 10 mM reduced glutathione, after 30 min
Protocol: as §1
The XanthCR-880 dye was also shown to have excellent stability. The stability of XanthCR-880 dye was tested against glutathione, which is a potential reducing agent in biological media. The XanthCR-880 dye (17 μM) was prepared in 40% DMSO/60% PBS solution with 10 mM reduced glutathione and evaluated the change in the maximum absorption at 880 nm. The 10 mM concentration of reduced glutathione was selected to reflect the highest reported levels found in the body (i.e., liver). There was no change observed in the absorbance of the dye after 30 min.

Row | SMILES | maximum absorption wavelength (λabs) ([1]; closed form, spectra obtained in DCM and DMSO, solvent of this value not stated) [nm] | maximum absorption wavelength (λabs) ([1]; in DCM) [nm] | maximum absorption wavelength (λabs) ([1]; in DMSO) [nm] | absorption maximum ([1]; solvent not stated) [nm] | decrease of PA signal (photobleaching) [2] [%] | change in the absorbance (porcine liver esterase) | wavelength of strongest photoacoustic intensity (λPA) ([3]; in PBS buffer) [nm] | wavelength of strongest photoacoustic intensity (λPA) ([3]; in chloroform (CHCl3), 20 μM) [nm] | fluorescence [4] | change in the absorbance of the dye (maximum absorption at 880 nm) [5]
1 | O=C1OC2(c3ccc(-c4ccc(N5CCCCC5)s4)cc3Oc3cc(-c4ccc(N5CCCCC5)s4)ccc32)c2ccccc21 [Compound 3] | 372 | – | – | – | – | – | – | – | – | –
2 | CCOC(=O)c1ccccc1C1=c2cc/c(=C3/C=CC(=[N+]4CCCCC4)S3)cc2Oc2cc(-c3ccc(N4CCCCC4)s3)ccc21.[Cl-] [XanthCR-880, 1-{5-[(3E)-9-[2-(Ethoxycarbonyl)phenyl]-6-[5-(piperidin-1-yl)thiophen-2-yl]-3H-xanthen-3-ylidene]-2,5-dihydrothiophen-2-ylidene}-1λ5-piperidin-1-ylium chloride] | – | 880 | 890 | 880 | 45 | no significant change | 865 | 890 | sufficient fluorescence for brightness imaging | no change
